Experimental data: patent publication US11504367B2, “Compounds and methods for treating oxalate-related diseases” (OxaluRx, Inc., priority 2019, dated 2022)

Assays:
[1] = biological target: recombinant full-length human hydroxyacid oxidase 1 (HAO1), the equivalents of hGOX (Homo sapiens (Human), UniProt Q9UJM8); assay: In-vitro human glycolate oxidase (hGOX) assay (Amplex red fluorescence); type: biochemical; conditions: 6 nM recombinant human GO, 85 μM glycolate, 10 min preincubation
Procedure, shortened: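 Activity was read as Amplex Red fluorescence (560/590 nm), with 50 μM reagent added after a 10 min room-temperature incubation. The enzyme, full-length human HAO1, was in pH 7.4 HEPES buffer containing KCl, NaCl, MgCl2 and 0.01% Triton X-100.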

[2] = In-vivo pharmacokinetic evaluation (exposure, AUC fold-over Example 1); conditions: male CD-1 mice, 10 mg/kg oral gavage in 20% (2-Hydroxypropyl)-β-cyclodextrin, plasma at 0.5, 2 and 6 hours post-dose; AUC expressed as fold-over Example 1
Description: In-vivo exposure of test compounds was determined in 5-6 week old male CD-1 mice. Mice (n=2/compound) received 10 mg/kg of each compound formulated in 20% (2-Hydroxypropyl)-β-cyclodextrin (10 μL/g) by oral gavage. At 0.5 hours, 2 hours, and 6 hours post-dose, blood samples were collected from the submandibular vein using EDTA as an anticoagulant and stored on ice. Plasma samples were obtained by centrifugation at 4° C. and were analyzed immediately or stored at −20° C. until analysis. Compounds were extracted from mouse plasma with acetonitrile and quantified by LC-MS-MS in the negative ion mode using a standard curve.

Chain of recombinant full-length human hydroxyacid oxidase 1 (HAO1), the equivalents of hGOX (Q9UJM8 whole entry): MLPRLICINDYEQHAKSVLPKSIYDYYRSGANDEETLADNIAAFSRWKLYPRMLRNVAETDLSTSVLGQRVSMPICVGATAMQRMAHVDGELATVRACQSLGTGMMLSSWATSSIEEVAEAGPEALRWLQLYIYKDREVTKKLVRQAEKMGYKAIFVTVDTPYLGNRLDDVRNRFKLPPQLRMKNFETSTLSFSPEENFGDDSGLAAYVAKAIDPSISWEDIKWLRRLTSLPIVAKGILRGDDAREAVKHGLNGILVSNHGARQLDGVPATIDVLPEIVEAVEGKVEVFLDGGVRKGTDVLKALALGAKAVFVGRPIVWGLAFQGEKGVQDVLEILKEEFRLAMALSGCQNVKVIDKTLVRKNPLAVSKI

| SMILES | IC50 [1] [nM] | AUC Fold over Ex. 1 [2] |
| --- | --- | --- |
| O=C(O)c1nn[nH]c1Oc1cccc(C#CCC(F)(F)F)c1 [Example 306, 5-(3-(4,4,4-Trifluorobut-1-ynyl)phenoxy)-1H-1,2,3-triazole-4-carboxylic Acid] | 16 | 0.7 |
| O=C(O)c1nn[nH]c1Oc1cccc(C#CCC2CCCCC2)c1 [Example 346, 5-(3-(3-Cyclohexylprop-1-ynyl)phenoxy)-1H-1,2,3-triazole-4-carboxylic Acid] | 3 | 0.7 |
| COc1ccc(C#Cc2ccc(Oc3[nH]nnc3C(=O)O)cc2)cn1 [Example 282, 5-(4-(2-(6-Methoxypyridin-3-yl)ethynyl)phenoxy)-1H-1,2,3-triazole-4-carboxylic Acid] | 3 | 0.5 |
| O=C(O)c1nn[nH]c1Oc1ccc(C#CCC2CC2)cc1 [Example 301, 5-(4-(3-Cyclopropylprop-1-ynyl)phenoxy)-1H-1,2,3-triazole-4-carboxylic Acid] | 15 | 0.7 |
| CC(C)C#Cc1cccc(Oc2[nH]nnc2C(=O)O)c1 [Example 10, 5-(3-(3-Methylbut-1-ynyl)phenoxy)-1H-1,2,3-triazole-4-carboxylic Acid] | 28 | 1.6 |
| O=C(O)c1nn[nH]c1Oc1cccc(C#CC2CCCC2)c1 [Example 29, 5-(3-(2-Cyclopentylethynyl)phenoxy)-1H-1,2,3-triazole-4-carboxylic Acid] | 10 | 2.5 |
| O=C(O)c1nn[nH]c1Oc1ccc(C#CC2CC2)cc1 [Example 20, 5-(4-(2-Cyclopropylethynyl)phenoxy)-1H-1,2,3-triazole-4-carboxylic Acid] | 11 | 0.8 |
| CCC#Cc1ccc(Oc2[nH]nnc2C(=O)O)cc1 [Example 303, 5-(4-(But-1-ynyl)phenoxy)-1H-1,2,3-triazole-4-carboxylic Acid] | 36 | 1.5 |
| Cc1ccc(C#Cc2cccc(Oc3[nH]nnc3C(=O)O)c2)cn1 [Example 295, 5-(3-(2-(6-Methylpyridin-3-yl)ethynyl)phenoxy)-1H-1,2,3-triazole-4-carboxylic Acid] | 1 | 0.2 |
| O=C(O)c1nn[nH]c1Oc1cccc(C#CC2CC2)c1 [Example 21, 5-(3-(2-Cyclopropylethynyl)phenoxy)-1H-1,2,3-triazole-4-carboxylic Acid] | 9 | 2.5 |
| Cc1cccc(C#Cc2ccc(Oc3[nH]nnc3C(=O)O)cc2)n1 [Example 293, 5-(4-(2-(6-Methylpyridin-2-yl)ethynyl)phenoxy)-1H-1,2,3-triazole-4-carboxylic Acid] | 5 | 0.1 |
| O=C(O)c1nn[nH]c1Oc1ccc(C#CCC(F)(F)F)cc1 [Example 305, 5-(4-(4,4,4-Trifluorobut-1-ynyl)phenoxy)-1H-1,2,3-triazole-4-carboxylic Acid] | 18 | 0.3 |
| O=C(O)c1nn[nH]c1Oc1cccc(C#Cc2ccccc2)c1 [Example 139, 5-(3-(2-Phenylethynyl)phenoxy)-1H-1,2,3-triazole-4-carboxylic Acid] | 10 | 1.1 |
| O=C(O)c1nn[nH]c1Oc1ccc(C#CC2CCCC2)cc1 [Example 28, 5-(4-(2-Cyclopentylethynyl)phenoxy)-1H-1,2,3-triazole-4-carboxylic Acid] | 18 | 0.3 |
| O=C(O)c1nn[nH]c1Oc1cccc(C#Cc2nccs2)c1 [Example 342, 5-(3-(2-(Thiazol-2-yl)ethynyl)phenoxy)-1H-1,2,3-triazole-4-carboxylic Acid] | 2 | 0.4 |
| O=C(O)c1nn[nH]c1Oc1cccc(C#CCC2CCC2)c1 [Example 345, 5-(3-(3-Cyclobutylprop-1-ynyl)phenoxy)-1H-1,2,3-triazole-4-carboxylic Acid] | 8 | 2.6 |
| O=C(O)c1nn[nH]c1Oc1cccc(C#CC2CCC2)c1 [Example 25, 5-(3-(2-Cyclobutylethynyl)phenoxy)-1H-1,2,3-triazole-4-carboxylic Acid] | 18 | 2.9 |
| O=C(O)c1nn[nH]c1Oc1cccc(C#Cc2cccc3cn[nH]c23)c1 [Example 324, 5-(3-(2-(1H-Indazol-7-yl)ethynyl)phenoxy)-1H-1,2,3-triazole-4-carboxylic Acid] | 4 | 1.7 |
| Cn1cc(C#Cc2cccc(Oc3[nH]nnc3C(=O)O)c2)cn1 [Example 221, 5-(3-(2-(1-Methyl-1H-pyrazol-4-yl)ethynyl)phenoxy)-1H-1,2,3-triazole-4-carboxylic Acid] | 1 | 0.1 |

| SMILES | IC50 [1] [nM] | AUC Fold over Ex. 1 [2] |
| --- | --- | --- |
| COc1ccc(C#Cc2cccc(Oc3[nH]nnc3C(=O)O)c2)cn1 [Example 284, 5-(3-(2-(6-Methoxypyridin-3-yl)ethynyl)phenoxy)-1H-1,2,3-triazole-4-carboxylic Acid] | 5 | 0.2 |
| O=C(O)c1nn[nH]c1Oc1cccc(C#CC2CCC(F)(F)CC2)c1 [Example 347, 5-(3-(2-(4,4-Difluorocyclohexyl)ethynyl)phenoxy)-1H-1,2,3-triazole-4-carboxylic Acid] | 21 | 0.7 |
| CCCC#Cc1ccc(Oc2[nH]nnc2C(=O)O)cc1 [Example 299, 5-(4-(Pent-1-ynyl)phenoxy)-1H-1,2,3-triazole-4-carboxylic Acid] | 15 | 0.9 |
| CCCC#Cc1cccc(Oc2[nH]nnc2C(=O)O)c1 [Example 300, 5-(3-(Pent-1-ynyl)phenoxy)-1H-1,2,3-triazole-4-carboxylic Acid] | 9 | 2.5 |
| O=C(O)c1nn[nH]c1Oc1cccc(C#CC2CCOCC2)c1 [Example 41, 5-(3-(2-(Tetrahydro-2H-pyran-4-yl)ethynyl)phenoxy)-1H-1,2,3-triazole-4-carboxylic Acid] | 13 | 0.1 |
| O=C(O)c1nn[nH]c1Oc1cccc(C#CCc2ccc(F)cc2)c1 [Example 354, 5-(3-(3-(4-Fluorophenyl)prop-1-ynyl)phenoxy)-1H-1,2,3-triazole-4-carboxylic Acid] | 5 | 2.4 |
| O=C(O)c1nn[nH]c1Oc1cccc(C#Cc2ccc3[nH]ncc3c2)c1 [Example 307, 5-(3-(2-(1H-Indazol-5-yl)ethynyl)phenoxy)-1H-1,2,3-triazole-4-carboxylic Acid] | 1 | 0.0 |
| CC(C)(C)C#Cc1cccc(Oc2[nH]nnc2C(=O)O)c1 [Example 17, 5-(3-(3,3-Dimethylbut-1-ynyl)phenoxy)-1H-1,2,3-triazole-4-carboxylic Acid] | 42 | 1.3 |
| O=C(O)c1nn[nH]c1Oc1cccc(C#CCC2CCCC2)c1 [Example 344, 5-(3-(3-Cyclopentylprop-1-ynyl)phenoxy)-1H-1,2,3-triazole-4-carboxylic Acid] | 4 | 1.9 |
| CCC#Cc1cccc(Oc2[nH]nnc2C(=O)O)c1 [Example 304, 5-(3-(But-1-ynyl)phenoxy)-1H-1,2,3-triazole-4-carboxylic Acid] | 12 | 1.6 |
| CC(C)(C)C#Cc1ccc(Oc2[nH]nnc2C(=O)O)cc1 [Example 16, 5-(4-(3,3-Dimethylbut-1-ynyl)phenoxy)-1H-1,2,3-triazole-4-carboxylic Acid] | 210 | 0.2 |
| O=C(O)c1nn[nH]c1Oc1ccc(C#CC2CCC2)cc1 [Example 24, 5-(4-(2-Cyclobutylethynyl)phenoxy)-1H-1,2,3-triazole-4-carboxylic Acid] | 16 | 0.3 |
| O=C(O)c1nn[nH]c1Oc1cccc(C#Cc2cccnc2)c1 [Example 312, 5-(3-(2-(Pyridin-3-yl)ethynyl)phenoxy)-1H-1,2,3-triazole-4-carboxylic Acid] | 3 | 0.2 |
| N#Cc1ccc(C#Cc2cc(Oc3[nH]nnc3C(=O)O)ccc2F)cc1 [Example 268, 4-(3-((4-Cyanophenyl)ethynyl)-4-fluorophenoxy)-1H-1,2,3-triazole-5-carboxylic Acid] | 1 | 0.3 |
| CC#Cc1cccc(Oc2[nH]nnc2C(=O)O)c1 [Example 6, 5-(3-(Prop-1-ynyl)phenoxy)-1H-1,2,3-triazole-4-carboxylic Acid] | 7 | 0.8 |
| Cn1ncc2c(C#Cc3cccc(Oc4[nH]nnc4C(=O)O)c3)cccc21 [Example 315, 5-(3-(2-(1-Methyl-1H-indazol-4-yl)ethynyl)phenoxy)-1H-1,2,3-triazole-4-carboxylic Acid] | 2 | 0.3 |
| O=C(O)c1nn[nH]c1Oc1ccc(C#Cc2cccc(F)c2)cc1 [Example 278, 5-(4-(2-(3-Fluorophenyl)ethynyl)phenoxy)-1H-1,2,3-triazole-4-carboxylic Acid] | 1 |  |
| O=C(O)c1nn[nH]c1Oc1cccc(C#Cc2ncc[nH]2)c1 [Example 332, 5-(3-(2-(1H-Imidazol-2-yl)ethynyl)phenoxy)-1H-1,2,3-triazole-4-carboxylic Acid] | 7 |  |
| O=C(O)c1nn[nH]c1Oc1ccc(C#Cc2ccc(Cl)cc2)cc1 [Example 290, 5-(4-(2-(4-Chlorophenyl)ethynyl)phenoxy)-1H-1,2,3-triazole-4-carboxylic Acid] | 0.4 |  |
